# Experimental data: PMC6864482, “Novel C7-Substituted Coumarins as Selective Monoamine Oxidase Inhibitors: Discovery, Synthesis and Theoretical Simulation” (Molecules, 2019)
# Structures can show the parent of a compound that is named as a salt. Where two headings read alike, the source gives them in different places.
# Columns and labels:
# [1] = molecular target: T1, hMAO-B (Homo sapiens, UniProt P27338); test: MAO-Glo inhibition assay, hMAO-B; assay type: biochemical
# T1 sequence (P27338 1-520): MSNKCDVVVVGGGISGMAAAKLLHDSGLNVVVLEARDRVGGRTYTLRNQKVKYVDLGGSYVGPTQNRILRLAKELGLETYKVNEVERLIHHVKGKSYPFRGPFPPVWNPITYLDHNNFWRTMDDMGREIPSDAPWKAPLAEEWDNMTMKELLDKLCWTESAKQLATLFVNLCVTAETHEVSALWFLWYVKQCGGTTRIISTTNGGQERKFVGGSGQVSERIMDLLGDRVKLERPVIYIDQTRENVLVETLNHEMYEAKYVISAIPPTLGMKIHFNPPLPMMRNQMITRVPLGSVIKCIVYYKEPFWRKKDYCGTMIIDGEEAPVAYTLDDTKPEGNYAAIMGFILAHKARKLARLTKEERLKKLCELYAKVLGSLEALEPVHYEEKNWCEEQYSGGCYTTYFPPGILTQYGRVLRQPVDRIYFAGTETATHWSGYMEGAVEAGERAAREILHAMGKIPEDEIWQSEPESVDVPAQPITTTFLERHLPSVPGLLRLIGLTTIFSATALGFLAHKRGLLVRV
# Procedure: (§1) The inhibition and IC50 values of the identified C7-substituted coumarin analogues were assayed by Shanghai ChemPartner Co. Ltd., using MAO-GloTM assay kit (Promega Corporation, V1402). Two human MAO enzymes (Cat#31502, Cat#31503) were purchased from Active Motif. Clorgyline and R(-)-deprenyl were purchased as reference drugs from Sigma (Cat. No. M3778) and Abcam (Cat. No. ab120604), respectively. The MAO inhibition assays were carried out in modified HEPES buffer in light of the manufacturer’s protocol. Firstly, the tested compounds in DMSO were transferred to a 384-well plate by Echo. The enzyme solutions were then added into the plate and the plate was incubated for 15 min at room temperature (r.t.). Secondly, the luciferin derivative substrate was added to initiate the reaction. After 60 min incubation at r.t., the Luciferin detection reagent was added to each well to terminate the reaction and generate the luminescent signal. Before reading the signal, the plate was incubated for 20 min at r.t. Finally, plate reader was used to measure and record the luminescent signal and corresponding data were processed using GraphPad Prism 5.
# [2] = molecular target: T2, hMAO-A (Homo sapiens, UniProt P21397); test: MAO-Glo inhibition assay, hMAO-A; assay type: biochemical
# T2 sequence (P21397 1-527): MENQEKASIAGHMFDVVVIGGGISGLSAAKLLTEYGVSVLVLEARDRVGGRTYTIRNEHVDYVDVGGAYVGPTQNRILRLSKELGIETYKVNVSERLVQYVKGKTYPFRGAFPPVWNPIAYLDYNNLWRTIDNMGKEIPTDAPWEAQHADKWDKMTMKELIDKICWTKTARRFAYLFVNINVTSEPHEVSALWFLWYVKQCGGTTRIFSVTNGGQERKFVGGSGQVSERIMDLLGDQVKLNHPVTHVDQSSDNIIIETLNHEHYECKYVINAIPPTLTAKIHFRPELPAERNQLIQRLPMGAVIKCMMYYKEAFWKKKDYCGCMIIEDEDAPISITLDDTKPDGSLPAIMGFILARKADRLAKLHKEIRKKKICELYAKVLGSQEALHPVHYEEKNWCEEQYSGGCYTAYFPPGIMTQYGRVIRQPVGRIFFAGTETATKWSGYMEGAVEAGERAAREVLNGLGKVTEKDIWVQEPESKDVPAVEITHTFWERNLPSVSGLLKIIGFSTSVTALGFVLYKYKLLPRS
# Procedure: as §1
# [3] = molecular target: T2, hMAO-A; settings: cited from earlier work
# [4] = molecular target: T1, hMAO-B; settings: cited from earlier work; for IC50: read-out: MAO-B IC50
# [5] = Table S3, Esuprone derivatives, read-out: MAO-A* IC50
# [6] = purchased (Specs) or synthesized compounds
# [7] = purchased (Specs) or synthesized compounds, read-out: MAO-A IC50
# [8] = experimental activity of reference ligand C18 of 2V61, source not stated
# [9] = previously identified BRS-3D hits
# [10] = pIC50 = −log(IC50), previously identified BRS-3D hits
# [11] = previously identified BRS-3D hits, read-out: MAO-A IC50
structure (smiles),measurement,setting,value
"Cc1c(OS(=O)(=O)c2ccc([N+](=O)[O-])cc2)ccc2c3c(c(=O)oc12)CCC3 (as salt: benzenesulfonate) [5c, 6-Methyl-4-oxo-1,2,3,4-tetrahydrocyclopenta[c]chromen-7-yl 4-nitrobenzenesulfonate]",melting point,,192 to 194 °C
"O=c1cc(C2CC2)c2ccc(OS(=O)(=O)c3ccc([N+](=O)[O-])cc3)cc2o1 (as salt: benzenesulfonate) [7f, 4-Cyclopropyl-2-oxo-2H-chromen-7-yl 4-nitrobenzenesulfonate]",melting point,,192 to 194 °C
"CCCc1cc(=O)oc2c(C)c(OS(=O)(=O)c3ccc(C)cc3)ccc12 (as salt: benzenesulfonate) [7i, 8-Methyl-2-oxo-4-propyl-2H-chromen-7-yl 4-methylbenzenesulfonate]",melting point,,144 to 146 °C
"CCCc1cc(=O)oc2c(C)c(OS(=O)(=O)c3ccc([N+](=O)[O-])cc3)ccc12 (as salt: benzenesulfonate) [7j, 8-Methyl-2-oxo-4-propyl-2H-chromen-7-yl 4-nitrobenzenesulfonate]",melting point,,171 to 174 °C
"CCS(=O)(=O)Oc1ccc2c3c(c(=O)oc2c1C)CCC3 [5a, 6-Methyl-4-oxo-1,2,3,4-tetrahydrocyclopenta[c]chromen-7-yl ethanesulfonate]",IC50,"[1]; Table S3, Esuprone derivatives",2.3 µM
same,IC50,[2]; [5],0.011 µM
same,melting point,,150 to 151 °C
"Cc1ccc(S(=O)(=O)Oc2ccc3c4c(c(=O)oc3c2C)CCC4)cc1 [5b, 6-Methyl-4-oxo-1,2,3,4-tetrahydrocyclopenta[c]chromen-7-yl 4-methylbenzenesulfonate]",IC50,"[1]; Table S3, Esuprone derivatives",4.9 µM
same,IC50,[2]; [5],0.012 µM
same,melting point,,152 °C
"Cc1c(OS(=O)(=O)c2ccc([N+](=O)[O-])cc2)ccc2c3c(c(=O)oc12)CCC3 [5c, 6-Methyl-4-oxo-1,2,3,4-tetrahydrocyclopenta[c]chromen-7-yl 4-nitrobenzenesulfonate]",IC50,"[1]; Table S3, Esuprone derivatives",0.59 µM
same,IC50,[2]; [5],< 0.005 µM
same,IC50,[2]; read-out: hMAO-A IC50,~0.005 µM
Cc1c(Oc2nnc(-c3ccccc3)s2)ccc2c3c(c(=O)oc12)CCC3 [5d],IC50,[1]; [6],2.3 µM
same,IC50,[2]; [7],0.096 µM
same,melting point,,140 °C
"CCCc1cc(=O)oc2cc(Oc3nnc(-c4ccccc4)s3)ccc12 [7b, 7-((5-Phenyl-1,3,4-thiadiazol-2-yl)oxy)-4-propyl-2H-chromen-2-one]",IC50,[2]; [7],0.024 µM
same,melting point,,150 °C
"Cc1c(C)c2cc(Cl)c(Oc3nnc(-c4ccccc4)s3)cc2oc1=O [7c, 6-Chloro-3,4-dimethyl-7-((5-phenyl-1,3,4-thiadiazol-2-yl)oxy)-2H-chromen-2-one]",IC50,[1]; [6],0.44 µM
same,IC50,[2]; [7],0.81 µM
same,melting point,,171 to 173 °C
"CCS(=O)(=O)Oc1ccc2c(C3CC3)cc(=O)oc2c1 [7d, 4-Cyclopropyl-2-oxo-2H-chromen-7-yl ethanesulfonate]",IC50,"[1]; Table S3, Esuprone derivatives",> 100 µM
same,IC50,[2]; [5],1.4 µM
same,melting point,,92 °C
"Cc1ccc(S(=O)(=O)Oc2ccc3c(C4CC4)cc(=O)oc3c2)cc1 [7e, 4-Cyclopropyl-2-oxo-2H-chromen-7-yl 4-methylbenzenesulfonate]",IC50,"[1]; Table S3, Esuprone derivatives",9.5 µM
same,IC50,[2]; [5],1.1 µM
same,melting point,,132 to 134 °C
"O=c1cc(C2CC2)c2ccc(OS(=O)(=O)c3ccc([N+](=O)[O-])cc3)cc2o1 [7f, 4-Cyclopropyl-2-oxo-2H-chromen-7-yl 4-nitrobenzenesulfonate]",IC50,"[1]; Table S3, Esuprone derivatives",9 µM
same,IC50,[2]; [5],0.095 µM
"O=c1cc(C2CC2)c2ccc(Oc3nnc(-c4ccccc4)s3)cc2o1 [7g, 4-Cyclopropyl-7-((5-phenyl-1,3,4-thiadiazol-2-yl)oxy)-2H-chromen-2-one]",IC50,[1]; [6],6.2 µM
same,IC50,[2]; [7],2 µM
same,melting point,,158 to 160 °C
"CCCc1cc(=O)oc2c(C)c(OS(=O)(=O)CC)ccc12 [7h, 8-Methyl-2-oxo-4-propyl-2H-chromen-7-yl ethanesulfonate]",IC50,"[1]; Table S3, Esuprone derivatives",9.9 µM
same,IC50,[2]; [5],0.91 µM
same,melting point,,78 to 80 °C
"CCCc1cc(=O)oc2c(C)c(OS(=O)(=O)c3ccc(C)cc3)ccc12 [7i, 8-Methyl-2-oxo-4-propyl-2H-chromen-7-yl 4-methylbenzenesulfonate]",IC50,"[1]; Table S3, Esuprone derivatives",4.1 µM
same,IC50,[2]; [5],0.17 µM
"CCCc1cc(=O)oc2c(C)c(OS(=O)(=O)c3ccc([N+](=O)[O-])cc3)ccc12 [7j, 8-Methyl-2-oxo-4-propyl-2H-chromen-7-yl 4-nitrobenzenesulfonate]",IC50,"[1]; Table S3, Esuprone derivatives",1.7 µM
same,IC50,[2]; [5],0.029 µM
"CCCc1cc(=O)oc2c(C)c(Oc3nnc(-c4ccccc4)s3)ccc12 [7k, 8-Methyl-7-((5-phenyl-1,3,4-thiadiazol-2-yl)oxy)-4-propyl-2H-chromen-2-one]",IC50,[1]; [6],0.12 µM
same,IC50,[2]; [7],0.021 µM
same,melting point,,110 to 112 °C
"CNCc1cc(=O)oc2cc(OCc3cccc(Cl)c3)ccc12 [C18, reference compound]",MAO-A pIC50,[3]; [8],4.8
same,MAO-B pIC50,[4]; [8],7
"CCS(=O)(=O)Oc1ccc2c(C)c(C)c(=O)oc2c1 [Esuprone, reference compound]",IC50,"[3]; comparison value under Table S3, MAO-A by context, source not stated, read-out: IC50 value of Esuprone",0.0107 µM
Cc1c(OC(=O)C2CC2)ccc2c3c(c(=O)oc12)CCC3 [FR1],inhibition at 10 µM,[1],75%
same,IC50,[1]; [6],> 1 µM
same,IC50,[2]; [7],0.0015 µM
Cc1c(OCC(=O)N(C)C)ccc2c3c(c(=O)oc12)CCC3 [FR2],inhibition at 10 µM,[1],12%
same,IC50,[1]; [6],> 10 µM
same,IC50,[2]; [7],2.82 µM
C=CCOC(=O)COc1ccc2c3c(c(=O)oc2c1C)CCCC3 [FR3],inhibition at 10 µM,[1],66%
same,IC50,[1]; [6],> 5 µM
same,IC50,[2]; [7],0.74 µM
O=C(COc1ccc2c3c(c(=O)oc2c1)CCC3)c1ccc(Cl)cc1 [FR4],IC50,[1]; [6],0.018 µM
same,inhibition at 10 µM,[2],23%
same,IC50,[2]; [7],> 10 µM
Cc1cc(=O)oc2cc(OCCOc3ccccc3)ccc12 [FR5],IC50,[1]; [6],0.015 µM
same,inhibition at 10 µM,[2],28%
same,IC50,[2]; [7],> 10 µM
Cc1cc(=O)oc2c(C)c(OCC(=O)N(C)C)ccc12 [M29],MAO-A Avg. Inh% at 10 uM,[3]; [9],75%
same,MAO-A pIC50,[3]; [10],5.6
same,IC50,[3]; [11],2.29 µM
same,MAO-B Avg. Inh% at 10 uM,[4]; [9],12%
same,MAO-B pIC50,[4]; [10],4
CCc1cc(=O)oc2cc(OCC(=O)N(C)C)ccc12 [M30],MAO-A Avg. Inh% at 10 uM,[3]; [9],56%
same,MAO-B Avg. Inh% at 10 uM,[4]; [9],22%
CCCc1cc(=O)oc2cc(OCC(=O)N(C)C)ccc12 [M31],MAO-A Avg. Inh% at 10 uM,[3]; [9],92%
same,MAO-A pIC50,[3]; [10],6.3
same,IC50,[3]; [11],0.5 µM
same,MAO-B Avg. Inh% at 10 uM,[4]; [9],16%
same,MAO-B pIC50,[4]; [10],4.2
same,IC50,[4]; [9],64.6 µM
Cc1c(C)c2cc(Cl)c(OCC(=O)N(C)C)cc2oc1=O [M32],MAO-A Avg. Inh% at 10 uM,[3]; [9],12%
same,MAO-A pIC50,[3]; [10],4.1
same,IC50,[3]; [11],81.3 µM
same,MAO-B Avg. Inh% at 10 uM,[4]; [9],90%
same,MAO-B pIC50,[4]; [10],6.2
same,IC50,[4]; [9],0.6 µM
Cc1cc(=O)oc2cc(OCC(=O)N(C)C)ccc12 [M33],MAO-A Avg. Inh% at 10 uM,[3]; [9],41%
same,MAO-B Avg. Inh% at 10 uM,[4]; [9],8%
Cc1cc(=O)oc2cc(OCC(=O)N(C)C)c(Cl)cc12 [M34],MAO-A Avg. Inh% at 10 uM,[3]; [9],19%
same,MAO-B Avg. Inh% at 10 uM,[4]; [9],40%
Cc1cc(=O)oc2c(C)c(Oc3nnc(-c4ccccc4)s3)ccc12 [SP1],inhibition at 10 µM,[1],64%
same,IC50,[1]; [6],> 5 µM
same,IC50,[2]; [7],0.019 µM
